Test results from US10682320B2, “Method for inhibiting osteoclast development” (West Virginia University, priority 2012, dated 2020).

Key:
[1] = system: store-operated Ca2+ entry (SOCe); assay: Store-operated Ca2+ entry (SOCe) in human osteoclasts; assay type: cell-based; settings: n=3; data not shown
Description: Human monocytes were isolated from normal buffy coat cells (60-80 ml) obtained with approval of institutional review boards by separation from donor blood, the white-cell depleted blood retained for clinical use. Human monocyte culture and differentiation were as reported (see, Yaroslayskly B B, Zhang Y, Kalla S E, Garcia P V, Sharrow A C, Li Y, Zaidi M, Wu C, Blair H C, “NO-dependent osteoclast motility: Reliance on cGMP-dependent protein kinase I and VASP”, J Cell Sci I, Vol. 18, pages 5479-5487, 2005). […]
Ratiometric imaging of intracellular Ca^2+ using fura-2 was as described (see, Zhou et al., 2009 above). […] Ca^2+ measurements were made using a Leica DMI 6000B fluorescence microscope controlled by Slidebook Software. Fluorescence emission at 505 nm was monitored while alternating between 340 and 380 nm excitation wavelengths at a frequency of 0.67 Hz; intracellular Ca^2+ measurements are shown as 340/380 nm emission ratios obtained from groups (35-45) of single cells. […]
The haloanilide DCPA blocks store-operated Ca^2+ channel function in Jurkat cells with no effect on ER Ca^2+ content. […] To address this, the present inventor examined HEK293 cells stably expressing Orai I and transiently transfected with YFP-STIMI and measured the effect of DCPA on CRAC current or Icrac. […]

STIM I = molecular target: T1, STIM I (Homo sapiens, UniProt Q13586); assay: STIM I puncta formation in HEK293 cells transfected with YFP-STIM I; assay type: cell-based; settings: 2 μM thapsigargin, 16 minute period
T1 construct: expressed in transfected cells; host or cells: HEK293
Description: HEK293 cells, maintained in DMEM with 10% FBS, were transfected with YFP-STIM I using Lipofectamine 2000 (Invitrogen, Carlsbad, Calif.) for 5 h (37° C.; 5% CO2) followed by a 24-h recovery. Cells were placed in 140 mM NaCl, 5 mM KCl, 1 mM MgCl2, 10 mM glucose, 15 mM HEPES, 0.1% BSA, 2 mM CaCl2 and analyzed by confocal microscopy for STIM I puncta formation using a Nikon phase-fluorescence microscope with CCD detectors (Diagnostic instruments, Sterling Heights, Mich.). Phase or transmitted light microscopy used 10-40× objectives and red, green, and blue filters to assemble color images. Fluorescence images used 1.4 NA 40× oil objectives. Red fluorescence used excitation at 530-560 nm, a 575 nm dichroic minor, and 580-650 nm emission filter. Transfection data were analyzed using Nikon NIS Elements Imaging Software. The effect of DCPA on STIM I/Orai I association was determined in wild-type HEK293 cells transfected with STIM I-YFP as described in Wang Y, Deng X, Zhou Y, Hendron E, Mancarelia S, Ritchie M F, Tang X D, Baba Y, Kurosaki T, Mori Y, Soboloff J, Gill DL, “STIM protein coupling in the activation of Orai channels”, Proc Natl Acad Sci USA, Vol. 106, pages 7391-7396, 2009. Experiments were performed on a Leica DMI 6000B fluorescence microscope controlled by Slidebook Software (Intelligent Imaging Innovations, Denver, Colo.). […]

T1 sequence (Q13586 23-685): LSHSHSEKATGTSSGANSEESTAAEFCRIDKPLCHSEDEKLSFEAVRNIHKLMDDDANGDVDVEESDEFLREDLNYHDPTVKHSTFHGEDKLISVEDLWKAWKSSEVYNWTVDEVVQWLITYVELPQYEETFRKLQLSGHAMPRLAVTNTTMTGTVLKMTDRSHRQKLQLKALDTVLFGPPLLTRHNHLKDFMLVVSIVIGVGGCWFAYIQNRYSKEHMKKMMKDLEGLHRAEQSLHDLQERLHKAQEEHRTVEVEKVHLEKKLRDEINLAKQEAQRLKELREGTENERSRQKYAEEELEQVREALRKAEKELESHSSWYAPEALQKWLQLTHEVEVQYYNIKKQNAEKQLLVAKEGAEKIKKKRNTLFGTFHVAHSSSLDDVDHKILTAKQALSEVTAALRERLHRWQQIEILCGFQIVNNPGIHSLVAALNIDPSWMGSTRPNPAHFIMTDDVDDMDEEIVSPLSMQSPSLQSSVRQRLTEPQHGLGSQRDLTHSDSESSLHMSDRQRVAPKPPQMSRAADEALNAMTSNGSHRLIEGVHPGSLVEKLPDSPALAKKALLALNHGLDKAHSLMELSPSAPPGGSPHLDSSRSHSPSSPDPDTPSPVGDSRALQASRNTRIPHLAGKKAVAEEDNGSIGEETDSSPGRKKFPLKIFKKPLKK

SMILES: CCC(=O)Nc1ccc(Cl)c(Cl)c1 [DCPA, N-(3,4-dichlorophenyl)propanamide]
- reduction of SOCe in osteoclasts [1]: 27.5%
- STIM I puncta formation after store depletion (STIM I): dramatically inhibited
